One test concerns the target CDK4/cyclin D1 (Homo sapiens (Human), UniProt P11802). The experiment in a line: CDK4/cyclin D1 enzymatic activity assay (TR-FRET, phosphorylation of pRb at Ser780). Type of test: biochemical. As to conditions: 0.3 nM CDK4/cyclin D1, 150 nM biotin-pRb (773-924), 3 μM ATP, 60 min at 22° C.; read-out: Biochemical CDK4 enzyme IC50. The method, then: CDK4/Cyclin D1 Enzymatic Activity Assay
An assay for monitoring CDK4/cyclin D1-catalyzed phosphorylation of pRb at the Ser780 site was performed using TR-FRET in a 384-well format, and was used for IC50 determination and kinetic analysis. […] 3 μM ATP was added last to initiate the reaction. The reaction was quenched with 10 μL of 240 mM EDTA-Na (pH 8.0) after 60 min incubation at 22° C.
Human CDK4/cyclin D1 was expressed in Sf21 cells via baculovirus infection.

Test [1] relates to phosphorylation of pRb at the Ser780 site in JeKo-1 mantle cell lymphoma cells. Nature of the test: CDK4 cellular assay: ELISA of pRb phosphorylation at Ser780 in JeKo-1 cells. Type of test: cell-based. As to conditions: Homo sapiens. The source says:
Cell-based assay measuring phosphorylation levels of pRb at the Ser780 site using an enzyme-linked immunosorbent assay (ELISA) method (Table 6). JeKo-1, a mantle-cell lymphoma cell line, was selected for use in this assay due to its known translocation and subsequent overexpression of cyclin D1. [Ref: Amin, H. M.; McDonnell, T. J.; Medeiros, L. J.; Rassidakis, G. Z.; Leventaki, V.; O'Connor, S. L.; Keating, M. J.; Lai, R. Characterization of 4 mantle cell lymphoma cell lines—Establishment of an in vitro study model. Arch. Pathol. Lab.
Cells were allowed to adhere overnight. […] 10 μL of the dilution were then transferred to the cell culture plate, resulting in a final concentration range of 10 μM to 2 nM. The incubation was carried out at 37° C. with 5% CO2. All compounds were tested in triplicates at each concentration. […] The plates were placed at 4° C. with vigorous shaking for 5 min to lyse the cells. The resulting lysates contained approximately 1 μg/μL of protein.
Plates were incubated overnight at 4° C. with rocking. […] After shaking for 10 minutes, the Superblock solution was replaced with fresh Superblock and plates were incubated on a shaker for an additional 50 min. After blocking, 30 μL of JeKo-1 cell lysate, containing approximately 10 μg total protein, were added to wells in triplicate. […] For all incubation steps, plates were covered with Uniseal plate sealers. […] Next, 50 μL of a 1:2500 dilution of donkey-anti-rabbit HRP (Promega catalog no. W401B) in PBS/10% Superblock were added, and plates were incubated for 30 min at room temperature on a shaker. Plates were again washed as described above. […] After incubation, 50 μL 2 M sulfuric acid were added to plates to top the reaction, and absorbance was determined on a SpectraMax (Molecular Devices, Sunnydale, Calif.) within 15 minutes at 450 nm. All washes were performed using a Bio-Tek plate washer.
The Total Rb ELISA kit (Invitrogen catalog no. KH00011) was used to determine the levels of total pRb. This kit uses wells precoated with a proprietary total pRb antibody for capture. All reagents listed, with the exception of cell lysate, were included in the kit. The nature of the antibodies used for capture and detection was labeled as proprietary and not disclosed. 10 μg of cell lysate was loaded into the wells and volume adjusted to 50 μL with standard dilution buffer. Plates were sealed with film included in the kit and incubated for 2 h at room temperature on a shaker. Plates are then manually washed three times with 250 μL wash buffer. 50 μL of proprietary primary antibody (pre-conjugated to biotin) was added to wells and incubated for 1 h at room temperature on a shaker. Then plates were again washed as noted above. The secondary antibody (HRP pre-conjugated to Streptavidin) was diluted 1:100 in Streptavidin-HRP diluent buffer and 50 μL was added to each well. Plates were then incubated for 30 min. Afterwards, plates were washed four times with buffer as outlined above. Finally, 50 μL stabilized Chromogen was added per well and plates were incubated for 15 min, at which point 50 μL of stop solution was added. Plates were then read on a Spectramax at 450 nm.
The total pRb levels were then used to adjust the p-pRb % inhibition values to account for any loss of signal due to the absence of the pRb protein itself, and the IC50 values obtained from the adjusted % inhibitions represent normalized cellular p-pRb IC50.

The next test concerns the target CDK1/cyclin B (Homo sapiens (Human), UniProt P06493). Nature of the test: CDK1/cyclin B enzymatic activity assay (IMAP-FP). Type of test: biochemical. The source says:
CDK1/Cyclin B Enzymatic Activity Assay
A 384-well microtiter IMAP-FP™ (Molecular Devices Trade Mark Technology) endpoint assay was used for CDK1/cyclin B kinase activity measurements. The same assay was used for IC50 determination of small molecule inhibitors.

[2] abbreviates: JeKo-1, JeKo-1 cells, p-pRb % inhibition adjusted with total pRb levels, read-out: Normalized cellular ppRb inhibition IC50.
[3] abbreviates: JeKo-1, JeKo-1 cells, p-pRb Ser780 ELISA, non-normalized, read-out: Cellular ppRb inhibition IC50.
The mark [4] stands for this setting: […] CDK1/cyclin B, 100 nM Tamra Histone-H1 peptide, 20 μM ATP, 120 min at room temperature, read-out: Biochemical CDK1 enzyme IC50.
Setting [5] is: JeKo-1 cells, p-pRb % inhibition adjusted with total pRb levels, read-out: Normalized cellular ppRb inhibition IC50.
[6] abbreviates: JeKo-1 cells, p-pRb Ser780 ELISA, non-normalized, read-out: Cellular ppRb inhibition IC50.

Where two headings read alike, the source gives them in different places.

CDK1/cyclin B, sequence (P06493 whole entry, species assumed): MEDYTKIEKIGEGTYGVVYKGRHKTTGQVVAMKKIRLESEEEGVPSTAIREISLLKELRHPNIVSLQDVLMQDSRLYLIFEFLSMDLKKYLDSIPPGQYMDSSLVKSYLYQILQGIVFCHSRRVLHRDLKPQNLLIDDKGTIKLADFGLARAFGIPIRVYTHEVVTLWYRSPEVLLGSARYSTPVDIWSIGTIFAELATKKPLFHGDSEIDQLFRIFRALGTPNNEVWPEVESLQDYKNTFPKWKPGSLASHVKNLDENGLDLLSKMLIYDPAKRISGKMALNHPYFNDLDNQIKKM
CDK1/cyclin B, sequence (P14635 whole entry partner, species assumed): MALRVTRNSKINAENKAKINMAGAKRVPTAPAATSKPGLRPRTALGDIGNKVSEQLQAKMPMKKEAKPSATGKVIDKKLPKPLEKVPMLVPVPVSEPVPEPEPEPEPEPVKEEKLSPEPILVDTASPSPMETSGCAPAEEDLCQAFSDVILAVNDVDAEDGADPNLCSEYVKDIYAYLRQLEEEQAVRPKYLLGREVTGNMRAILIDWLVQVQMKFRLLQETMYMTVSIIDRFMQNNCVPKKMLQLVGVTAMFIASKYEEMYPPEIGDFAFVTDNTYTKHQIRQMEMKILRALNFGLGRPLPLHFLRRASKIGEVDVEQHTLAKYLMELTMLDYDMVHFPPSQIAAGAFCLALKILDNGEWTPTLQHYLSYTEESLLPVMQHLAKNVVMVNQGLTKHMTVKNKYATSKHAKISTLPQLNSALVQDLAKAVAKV
CDK4/cyclin D1, sequence (P11802 whole entry): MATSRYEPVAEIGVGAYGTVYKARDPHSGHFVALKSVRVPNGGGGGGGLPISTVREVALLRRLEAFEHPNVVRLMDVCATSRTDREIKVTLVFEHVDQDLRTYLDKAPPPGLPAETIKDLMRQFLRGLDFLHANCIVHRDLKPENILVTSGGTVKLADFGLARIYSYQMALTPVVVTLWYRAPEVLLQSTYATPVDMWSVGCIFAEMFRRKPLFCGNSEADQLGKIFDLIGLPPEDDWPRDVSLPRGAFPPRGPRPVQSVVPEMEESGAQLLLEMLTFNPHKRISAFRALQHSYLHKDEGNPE
CDK4/cyclin D1, sequence (P24385 whole entry partner): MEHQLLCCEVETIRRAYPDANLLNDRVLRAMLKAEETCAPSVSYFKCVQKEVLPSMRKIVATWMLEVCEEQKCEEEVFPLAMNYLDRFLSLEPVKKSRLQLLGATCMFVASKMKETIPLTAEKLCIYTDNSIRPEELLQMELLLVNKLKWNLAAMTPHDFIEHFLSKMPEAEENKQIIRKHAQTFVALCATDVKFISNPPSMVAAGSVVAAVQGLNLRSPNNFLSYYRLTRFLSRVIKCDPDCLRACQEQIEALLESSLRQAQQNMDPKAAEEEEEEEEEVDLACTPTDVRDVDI

Turning to `CN(C)C(=O)c1cc2cnc(Nc3ccc(N4C[C@@H]5CNC[C@@H]5CC4=O)cn3)nc2n1C1CCCCCC1` (stereo in doubt) [Example 89, 7-cycloheptyl-N,N-dimethyl-2-(5-(cis-6-oxotetrahydro-1H-pyrrolo[3,4-c]pyridin-5(6H,7H,7aH)-yl)pyridin-2-ylamino)-7H-pyrrolo[2,3-d]pyrimidine-6-carboxamide], the IC50 is 3 nM at CDK4/cyclin D1, 4 to 15 nM in test [1] (setting [2]), 5 to 7 nM in test [1] (setting [3]) and 6480 nM at CDK1/cyclin B (setting [4]).
As to `CN(C)C(=O)c1cc2cnc(Nc3ccc(C(=O)N4CC[C@H]5CC[C@@H](C4)N5)cn3)nc2n1C1CCCC1` [Example 71, 7-Cyclopentyl-2-[5-((1S,6R)-3,9-diaza-bicyclo[4.2.1]nonane-3-carbonyl)-pyridin-2-ylamino]-7H-pyrrolo[2,3-d]pyrimidine-6-carboxylic acid dimethylamide], the IC50 was 5 to 6 nM on CDK4/cyclin D1, 56 nM in test [1] (setting [5]) and 31 nM in test [1] (setting [6]).
Regarding `[2H]C([2H])([2H])N1C2CCC1CN(C(=O)c1ccc(Nc3ncc4cc(C(=O)N(C)C)n(C5CCCC5)c4n3)nc1)C2` [Example 63, 7-Cyclopentyl-2-[5-(8-methyl-d3-3,8-diaza-bicyclo[3.2.1]octane-3-carbonyl)-pyridin-2-ylamino]-7H-pyrrolo[2,3-d]pyrimidine-6-carboxylic acid dimethylamide], the half-maximal inhibitory concentration (IC50) at CDK4/cyclin D1 is 11 to 24 nM; in test [1] (setting [2]), 40 to 242 nM; in test [1] (setting [3]) it was 34 to 78 nM; at CDK1/cyclin B it was greater than 15000 nM.
Regarding `CC(C)[C@@H](N)C(=O)N1C2CCC1CN(C(=O)c1ccc(Nc3ncc4cc(C(=O)N(C)C)n(C5CCCC5)c4n3)nc1)C2` [Example 62, 2-{5-[8-((R)-2-Amino-3-methyl-butyryl)-3,8-diaza-bicyclo[3.2.1]octane-3-carbonyl]-pyridin-2-ylamino}-7-cyclopentyl-7H-pyrrolo[2,3-d]pyrimidine-6-carboxylic acid dimethylamide], the half-inhibitory concentration (IC50) on CDK4/cyclin D1 was determined as 10 nM; in test [1] (setting [5]), 723 nM; in test [1] (setting [6]), 291 nM; on CDK1/cyclin B (setting [4]), 39900 nM.
The corresponding values for `CN(C)C(=O)c1cc2cnc(Nc3ccc(N4C[C@@H]5CNC[C@@H]5C4=O)cn3)nc2n1C1CCCCCC1` [Example 82, 7-cycloheptyl-N,N-dimethyl-2-(5-((3aS,6aR)-1-oxohexahydropyrrolo[3,4-c]pyrrol-2(1H)-yl)pyridin-2-ylamino)-7H-pyrrolo[2,3-d]pyrimidine-6-carboxamide] are 4 nM, 9 nM, 5 nM and 2660 nM.
As for `CN(C)C(=O)c1cc2cnc(Nc3ccc(N4CCN5CCC[C@@H]5C4=O)cn3)nc2n1C1CCCC1` [Example 147], the concentration for half-maximal inhibition (IC50) is 27 nM at CDK4/cyclin D1, 310 nM in test [1] (setting [2]), 257 nM in test [1] (setting [3]) and greater than 15000 nM on CDK1/cyclin B (setting [4]).
Consider `CN(C)C(=O)c1cc2cnc(Nc3ccc(C(=O)N4C[C@@H]5C[C@H]4C[C@@H]5O)cn3)nc2n1C1CCCC1` [Example 30, 7-cyclopentyl-2-(5-((1S,4S,5S)-5-hydroxy-2-azabicyclo[2.2.1]heptane-2-carbonyl)pyridin-2-ylamino)-N,N-dimethyl-7H-pyrrolo[2,3-d]pyrimidine-6-carboxamide], for which the half-inhibitory concentration (IC50) is 88 to 114 nM at CDK4/cyclin D1, 344 to 582 nM in test [1] (setting [5]), 422 to 542 nM in test [1] (setting [6]) and greater than 15000 nM at CDK1/cyclin B (setting [4]).
For the compound `CN(C)C(=O)c1cc2cnc(Nc3ccc(N4CC5CCC(CC4=O)N5)cn3)nc2n1-c1ccc(C(C)(C)C#N)cc1` (stereo not drawn) [Example 127, 7-(4-(2-cyanopropan-2-yl)phenyl)-N,N-dimethyl-2-(5-(4-oxo-3,9-diazabicyclo[4.2.1]nonan-3-yl)pyridin-2-ylamino)-7H-pyrrolo[2,3-d]pyrimidine-6-carboxamide], the concentration for half-maximal inhibition (IC50) in test [1] (setting [5]) lay within 247 to 1520 nM; in test [1] (setting [6]), 119 to 917 nM.
For the compound `CN(C)C(=O)c1cc2cnc(Nc3ccc(C(=O)N4CC[C@@H]5CC[C@H](C4)N5)cn3)nc2n1C1CCCC1` [Example 72, 7-cyclopentyl-2-[5-((1R,6S)-3,9-diaza-bicyclo[4.2.1]nonane-3-carbonyl)-pyridin-2-ylamino]-7H-pyrrolo[2,3-d]pyrimidine-6-carboxylic acid dimethylamide], the results for the IC50 (at CDK4/cyclin D1; in test [1] (setting [5]); in test [1] (setting [6])) were 13 nM, 112 nM and 48 nM, respectively.
Consider `CN(C)C(=O)c1cc2cnc(Nc3ccc(C(=O)N4CC5CCC(C4)N5)cn3)nc2n1C1CCN(C2CC2)CC1` [Example 56, 7-(1-cyclopropyl-piperidin-4-yl)-2-[5-(3,8-diaza-bicyclo[3.2.1]octane-3-carbonyl)-pyridin-2-ylamino]-7H-pyrrolo[2,3-d]pyrimidine-6-carboxylic acid dimethylamide], for which the IC50 in test [1] (setting [2]) turned out to be 470 nM; in test [1] (setting [3]), 395 nM.
Consider `CN(C)C(=O)c1cc2cnc(Nc3ccc(C(=O)N4CCC5CCC(C4)N5)cn3)nc2n1C1CCCC1` (racemic) [Example 69, 7-Cyclopentyl-2-[5-(3,9-diaza-bicyclo[4.2.1]nonane-3-carbonyl)-pyridin-2-ylamino]-7H-pyrrolo[2,3-d]pyrimidine-6-carboxylic acid dimethylamide], for which the results for the IC50 (on CDK4/cyclin D1; in test [1] (setting [5]); in test [1] (setting [6])) were 5 to 18 nM, 48 nM and 24 nM, respectively.
For the compound `CN(C)C(=O)c1cc2cnc(Nc3ccc(N4CCC5(CCCN5)C4=O)cn3)nc2n1C1CCCC1` (stereo not drawn) [Example 113, 7-Cyclopentyl-2-[5-(6-oxo-1,7-diaza-spiro[4,4]non-7-yl)-pyridin-2-ylamino]-7H-pyrrolo[2,3-d]pyrimidin-6-carboxylic acid dimethylamide], the IC50 on CDK4/cyclin D1 fell in the range of 17 to 21 nM; in test [1] (setting [2]), 204 to 245 nM; in test [1] (setting [3]) it was 177 to 205 nM.
With `CN(C)C(=O)c1cc2cnc(Nc3ccc(C(=O)N4CC5CCCC(C4)N5)cn3)nc2n1C1CCCC1` [Example 52, 7-Cyclopentyl-2-[5-(3,9-diaza-bicyclo[3.3.1]nonane-3-carbonyl)-pyridin-2-ylamino]-7H-pyrrolo[2,3-d]pyrimidine-6-carboxylic acid dimethylamide], the IC50 on CDK4/cyclin D1 was 27 nM; in test [1] (setting [5]), 45 to 53 nM; in test [1] (setting [6]), 21 to 47 nM.
`CN(C)C(=O)c1cc2cnc(Nc3ccc(C(=O)N4CC5CCC(C4)N5)cn3)nc2n1C1CCC1` [Example 55, 7-Cyclobutyl-2-[5-(3,8-diaza-bicyclo[3.2.1]octane-3-carbonyl)-pyridin-2-ylamino]-7H-pyrrolo[2,3-d]pyrimidine-6-carboxylic acid dimethylamide]: the half-inhibitory concentration (IC50) in test [1] (setting [5]) fell in the range of 35 to 164 nM; in test [1] (setting [6]) it was 31 to 112 nM.

The values are drawn from patent publication US8957074B2 (Novartis AG, priority 2010, dated 2015).
